This note sets out measurements from patent US12673951B2, “Substituted pyrazoloquinazolinone compounds and application thereof” (IMPACT THERAPEUTICS (SHANGHAI), INC, priority 2019, dated 2026).

Test [1] relates to human breast cancer cell MDA-MB-468. The test is described as follows: MTT assay, growth of MDA-MB-468 cells. In kind it is cell-based. To be noted: Homo sapiens, 168 h; MDA-MB-468 cells, 7 days, MTT; read-out: IC50, growth of MDA-MB-468. How it is done: The cells were seeded into 96-well cell culture plate with appropriate cell density and incubated overnight in a 37° C. 5% CO2 incubator. […] 5 μL of each concentration was added to 120 μL of medium (25 times diluted) and mixed by shaking. The overnight cells were taken and the culture medium was removed, 195 μL of fresh medium was added to each well, and 5 μL of diluted medium containing the corresponding concentration of the tested sample was added, respectively, and the culture plate was then placed in the 5% CO2 cell culture incubator at 37° C. for 7 days (On the fourth day, the medium containing drugs was removed and fresh medium containing drugs was added for continuous cultivation.). After removing the original solution, 100 μL of fresh serum-free DMEM medium containing MTT (0.5 mg/mL) was added to each well, the culture was continued. […] GraphPad Prism 6.0 was used to analyze the data. The inhibitory activity of compounds on cell proliferation was plotted based on cell viability and compound concentration.

The target of test [2] is T1, ATM enzyme (Homo sapiens, UniProt Q13315).
T1 construct: purchased Eurofins 14-933
T1 sequence (Q13315 whole entry): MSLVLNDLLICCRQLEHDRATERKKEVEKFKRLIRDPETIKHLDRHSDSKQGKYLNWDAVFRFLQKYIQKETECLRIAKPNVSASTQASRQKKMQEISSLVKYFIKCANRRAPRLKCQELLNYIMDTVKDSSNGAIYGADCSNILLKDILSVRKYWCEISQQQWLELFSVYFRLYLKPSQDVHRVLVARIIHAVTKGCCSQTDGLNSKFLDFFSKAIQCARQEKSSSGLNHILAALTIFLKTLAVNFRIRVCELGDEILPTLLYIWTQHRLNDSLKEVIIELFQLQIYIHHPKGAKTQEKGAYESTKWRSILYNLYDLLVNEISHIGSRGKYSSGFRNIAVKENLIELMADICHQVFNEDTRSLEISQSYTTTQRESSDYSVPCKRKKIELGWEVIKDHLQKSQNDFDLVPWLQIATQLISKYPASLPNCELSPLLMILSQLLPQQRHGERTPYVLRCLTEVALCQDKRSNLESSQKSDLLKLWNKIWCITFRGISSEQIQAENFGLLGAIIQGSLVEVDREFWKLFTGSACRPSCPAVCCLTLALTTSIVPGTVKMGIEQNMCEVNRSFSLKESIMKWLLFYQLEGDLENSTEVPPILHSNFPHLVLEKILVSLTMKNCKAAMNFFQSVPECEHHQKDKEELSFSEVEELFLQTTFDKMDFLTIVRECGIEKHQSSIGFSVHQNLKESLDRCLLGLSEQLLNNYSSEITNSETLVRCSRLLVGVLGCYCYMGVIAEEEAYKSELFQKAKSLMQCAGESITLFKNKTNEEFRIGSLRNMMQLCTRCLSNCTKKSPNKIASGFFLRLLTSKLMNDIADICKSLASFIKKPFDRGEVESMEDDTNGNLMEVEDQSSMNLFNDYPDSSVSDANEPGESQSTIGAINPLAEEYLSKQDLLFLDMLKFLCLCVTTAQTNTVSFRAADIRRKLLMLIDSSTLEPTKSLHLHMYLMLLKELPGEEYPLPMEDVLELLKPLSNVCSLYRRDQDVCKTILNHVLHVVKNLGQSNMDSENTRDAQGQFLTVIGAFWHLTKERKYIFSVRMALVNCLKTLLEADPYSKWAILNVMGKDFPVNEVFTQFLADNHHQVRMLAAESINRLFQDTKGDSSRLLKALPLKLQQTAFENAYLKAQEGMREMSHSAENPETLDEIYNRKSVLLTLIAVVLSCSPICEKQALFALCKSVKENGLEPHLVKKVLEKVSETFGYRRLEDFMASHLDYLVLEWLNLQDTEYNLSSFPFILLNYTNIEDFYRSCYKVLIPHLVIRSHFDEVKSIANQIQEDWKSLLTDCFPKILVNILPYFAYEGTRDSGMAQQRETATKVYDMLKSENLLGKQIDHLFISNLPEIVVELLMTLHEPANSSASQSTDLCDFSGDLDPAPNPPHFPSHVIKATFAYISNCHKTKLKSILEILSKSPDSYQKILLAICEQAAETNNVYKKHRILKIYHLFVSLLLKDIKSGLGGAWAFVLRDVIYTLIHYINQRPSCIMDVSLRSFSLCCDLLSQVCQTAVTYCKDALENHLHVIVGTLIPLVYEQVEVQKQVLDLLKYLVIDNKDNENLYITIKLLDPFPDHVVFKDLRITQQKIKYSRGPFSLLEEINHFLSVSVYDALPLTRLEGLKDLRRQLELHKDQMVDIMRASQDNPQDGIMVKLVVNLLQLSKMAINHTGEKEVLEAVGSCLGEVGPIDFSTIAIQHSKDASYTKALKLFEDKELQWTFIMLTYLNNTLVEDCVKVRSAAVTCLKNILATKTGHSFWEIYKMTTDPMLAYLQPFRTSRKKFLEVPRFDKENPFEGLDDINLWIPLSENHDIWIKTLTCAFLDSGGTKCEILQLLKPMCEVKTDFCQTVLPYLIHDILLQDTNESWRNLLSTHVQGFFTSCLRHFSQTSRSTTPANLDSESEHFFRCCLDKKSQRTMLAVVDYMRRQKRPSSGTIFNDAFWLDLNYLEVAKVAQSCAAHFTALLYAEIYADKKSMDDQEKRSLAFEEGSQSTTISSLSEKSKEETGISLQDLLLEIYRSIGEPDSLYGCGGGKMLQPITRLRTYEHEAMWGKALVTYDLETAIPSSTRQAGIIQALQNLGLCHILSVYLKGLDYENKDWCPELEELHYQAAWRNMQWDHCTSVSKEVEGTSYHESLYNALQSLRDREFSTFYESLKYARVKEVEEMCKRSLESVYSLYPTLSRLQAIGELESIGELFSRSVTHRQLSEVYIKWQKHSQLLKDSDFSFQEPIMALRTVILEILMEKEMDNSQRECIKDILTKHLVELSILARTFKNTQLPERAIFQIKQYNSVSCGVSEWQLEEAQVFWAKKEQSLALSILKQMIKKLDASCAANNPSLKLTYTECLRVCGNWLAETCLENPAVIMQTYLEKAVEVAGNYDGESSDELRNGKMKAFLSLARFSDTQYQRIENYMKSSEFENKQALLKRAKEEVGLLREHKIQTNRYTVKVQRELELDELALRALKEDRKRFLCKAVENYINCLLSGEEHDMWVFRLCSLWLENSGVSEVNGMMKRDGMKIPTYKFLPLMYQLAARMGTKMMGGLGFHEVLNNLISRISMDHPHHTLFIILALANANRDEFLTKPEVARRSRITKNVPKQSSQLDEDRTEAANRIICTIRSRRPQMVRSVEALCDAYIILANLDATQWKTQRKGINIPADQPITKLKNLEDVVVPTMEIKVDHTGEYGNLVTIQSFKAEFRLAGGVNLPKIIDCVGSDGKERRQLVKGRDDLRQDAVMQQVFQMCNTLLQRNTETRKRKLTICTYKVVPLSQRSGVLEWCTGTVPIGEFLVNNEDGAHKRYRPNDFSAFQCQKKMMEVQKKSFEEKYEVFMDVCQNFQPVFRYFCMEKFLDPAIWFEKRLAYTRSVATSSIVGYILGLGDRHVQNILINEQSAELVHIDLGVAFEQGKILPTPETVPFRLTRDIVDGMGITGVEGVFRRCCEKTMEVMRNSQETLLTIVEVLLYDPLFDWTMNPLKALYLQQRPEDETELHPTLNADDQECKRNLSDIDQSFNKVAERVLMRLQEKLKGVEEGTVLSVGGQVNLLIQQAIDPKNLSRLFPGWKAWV
The test is described as follows: ATM kinase assay (HTRF). In kind it is biochemical. As to conditions: 0.5 h; C 1 μm; read-out: Inh (%) ATM kinase inhibition rate. On the procedure: The mixture was centrifuged at 1000 rpm for 1 minute, and reacted at room temperature away from light for 30 minutes. Then 5 μL of EDTA stop solution (250 mM) was added to stop the reaction. After 5 μL of detection mixture (Anti-phospho-p53 (ser15)-K (Cisbio, #61P08KAE, 0.084 ng/μL) and Anti-GST-d2 (Cisbio, #61GSTDLA, 5.00 ng/μL)) was finally added to each well, then incubate the plate overnight at room temperature.
Relative fluorescence ratio was calculated: Ratio665 nm/615 nm-Ratiobackground, and inhibition rate %=(1−(relative fluorescence ratio of test compound well−relative fluorescence ratio of positive control well)/(relative fluorescence ratio of negative control well−relative fluorescence ratio of positive control well))×100 was calculated. Data were analyzed using GraphPad Prism6.0, and fitted using the curve equation: Y=Bottom+(Top−Bottom)/(1+10^((Log IC50−X)×HillSlope)) and IC50 values were calculated.

For test [3], the system named is human colon cancer cell SW620. The test is described as follows: MTT assay, growth of SW620 cells, compounds combined with CPT-11. In kind it is cell-based. As to conditions: Homo sapiens, SW-620, 120 h; SW620 cells, medium containing 205 nM CPT-11, 5 days, MTT; read-out: IC50, growth of SW620 combined with CPT-11. On the procedure:
The cells were seeded into 96-well cell culture plate with appropriate cell density and incubated overnight in a 37° C. 5% CO2 incubator. […] 5 μL of each concentration was added to 120 μL of medium (25 times diluted) and mixed by shaking. […] After removing the original solution, 100 μL of fresh serum-free DMEM medium containing MTT (0.5 mg/mL) was added to each well, the culture was continued. […] GraphPad Prism 6.0 was used to analyze the data. The inhibitory activity of compounds on cell proliferation was plotted based on cell viability and compound concentration.

On to `CCn1c(=O)c(C2CCOCC2)c2c3cc(-c4ccc(OCCCN(C)C)nc4)ccc3ncn21` [Example 26, 9-(6-(3-(dimethylamino)propoxy)pyridin-3-yl)-3-ethyl-1-(tetrahydro-2H-pyran-4-yl)pyrazolo[1,5-c]quinazolin-2(3H)-one], for which the IC50 in test [1] was determined as 123 nM; in test [3], 142 nM. Moreover, the inhibition at 1 µM in test [2] was found to be 66.5%.
